Assay results published in EPA's ToxRefDB 2.
Each block holds one compound with its values, some of them ahead of it.

Experiments:
[1] = tested on: mouse; settings: Combined chronic toxicity/carcinogenicity, b6c3f1, Oral, Gavage/Intubation, dose end: 2 year, group: systemic
[2] = tested on: rat; settings: Combined chronic toxicity/carcinogenicity; fischer; Oral; Gavage/Intubation; dose end: 2 year; group: systemic; systemic / pathology microscopic / kidney / hyperplasia + systemic / pathology microscopic / kidney / nephropathy + systemic / pathology …
[3] = tested on: rat; settings: Prenatal developmental toxicity study, wistar, Oral, Gavage/Intubation, dose end: 15 GD
[4] = tested on: rat; settings: Subchronic oral toxicity in rodents, fischer, Gavage/Intubation, dose end: 14 week, group: systemic
[5] = tested on: rat; settings: Peri- and post-natal toxicity study (Segment III), wistar, Oral, Gavage/Intubation, dose end: 21 PND
[6] = tested on: mouse; settings: Subchronic oral toxicity in rodents, b6c3f1, Gavage/Intubation, dose end: 14 week, group: systemic
[7] = tested on: mouse; settings: Subchronic oral toxicity in rodents, b6c3f1, Feed, dose end: 90 day, group: systemic
[8] = tested on: dog; settings: Chronic toxicity, beagle, Oral, Feed, dose end: 52 week, group: systemic
[9] = tested on: rabbit; settings: Prenatal developmental toxicity study, himalayan, Oral, Gavage/Intubation, dose end: 19 GD
[10] = tested on: mouse; settings: Carcinogenicity, b6c3f1, Oral, Feed, dose end: 78 week, group: systemic
[11] = tested on: rat; settings: Reproduction/developmental toxicity screening test; wistar; Injection; Intraperitoneal; dose end: 45 PND; group: parental; systemic / organ weight / ovary / nos
[12] = tested on: mouse; settings: Reproduction/developmental toxicity screening test; cd1; Injection; Intraperitoneal; dose end: 14 day; group: maternal; reproductive / reproductive performance / fertility / fertility + reproductive / reproductive performance / implantations / implantations + …
[13] = tested on: rat; settings: Fertility (Segment I), wistar, Injection, Intraperitoneal, dose end: 7 day
[14] = systemic / pathology microscopic / liver / adenoma/carcinoma combined + systemic / pathology microscopic / liver / adenoma + systemic / …
[15] = group: developmental, developmental / developmental malformation / bone / [other] + developmental / developmental malformation / bone / delayed ossification + …
[16] = group: maternal, reproductive / reproductive performance / implantations / implantations + systemic / in life observation / body weight / body weight gain + …
[17] = systemic / organ weight / kidney / absolute + systemic / organ weight / kidney / relative to body weight + systemic / organ weight / liver…
[18] = group: developmental, developmental / developmental landmark / eye opening / eye opening + developmental / developmental landmark / pinna unfolding / pinna …
[19] = group: maternal, reproductive / reproductive performance / dystocia / dystocia + reproductive / reproductive performance / fertility / fertility + …
[20] = group: offspring, systemic / in life observation / body weight / offspring (pup) weight
[21] = group: parental, systemic / in life observation / body weight / body weight + systemic / in life observation / body weight / body weight gain + systemic / in…
[22] = systemic / organ weight / kidney / relative to body weight + systemic / organ weight / liver / absolute
[23] = systemic / in life observation / body weight / body weight gain
[24] = systemic / in life observation / body weight / body weight gain + systemic / organ weight / kidney / absolute
[25] = systemic / organ weight / liver / relative to body weight
[26] = systemic / organ weight / liver / relative to body weight + systemic / clinical chemistry / alanine aminotransferase (alt/sgpt) / alanine …
[27] = group: developmental, systemic / in life observation / body weight / fetal weight
[28] = group: maternal, systemic / in life observation / body weight / body weight gain + systemic / in life observation / food consumption / food consumption
[29] = group: maternal, systemic / in life observation / body weight / body weight gain + systemic / in life observation / food consumption / food consumption + …
[30] = systemic / in life observation / body weight / body weight + systemic / organ weight / brain / nos + systemic / organ weight / kidney / nos
[31] = group: maternal, reproductive / reproductive performance / estrous cycle / length
[32] = group: parental, systemic / clinical chemistry / estradiol / estradiol, free + systemic / pathology microscopic / vagina / diestrus

Compound: C=CC(=C)CCC=C(C)C [Myrcene]
LOAEL ([1]; systemic / in life observation / body weight / body weight + systemic / pathology microscopic / liver / hypertrophy + systemic / pathology …): 500 mg/kg/day
NOAEL ([1]; systemic / pathology microscopic / liver / adenoma/carcinoma combined + systemic / in life observation / body weight / body weight + …): 250 mg/kg/day
LEL [1, 14]: 250 mg/kg/day
NEL [1, 14]: < 250 mg/kg/day
LEL [2]: 250 mg/kg/day
LOAEL [2]: 250 mg/kg/day
NEL [2]: < 250 mg/kg/day
NOAEL [2]: < 250 mg/kg/day
LEL [3, 15]: 1200 mg/kg/day
LOAEL [3, 15]: > 1200 mg/kg/day
NEL [3, 15]: 500 mg/kg/day
NOAEL [3, 15]: ≥ 1200 mg/kg/day
LEL [3, 16]: 1200 mg/kg/day
LOAEL [3, 16]: > 1200 mg/kg/day
NEL [3, 16]: 500 mg/kg/day
NOAEL [3, 16]: ≥ 1200 mg/kg/day
LEL [4, 17]: 250 mg/kg/day
NEL [4, 17]: < 250 mg/kg/day
NOAEL [4, 17]: 250 mg/kg/day
LOAEL ([4]; systemic / organ weight / kidney / absolute + systemic / organ weight / kidney / relative to body weight + systemic / pathology microscopic…): 500 mg/kg/day
LOAEL [5, 18]: > 1500 mg/kg/day
NEL [5, 18]: 250 mg/kg/day
NOAEL [5, 18]: ≥ 1500 mg/kg/day
LEL ([5]; group: developmental, developmental / developmental malformation / general / [other]): 500 mg/kg/day
NEL ([5]; group: maternal, reproductive / offspring survival early / dead fetuses / dead fetuses + reproductive / offspring survival early / litter viability other / …): 250 mg/kg/day
LEL ([5]; group: maternal, reproductive / offspring survival early / litter viability other / litter viability): 500 mg/kg/day
LOAEL [5, 19]: > 1500 mg/kg/day
NOAEL [5, 19]: ≥ 1500 mg/kg/day
LEL [5, 20]: 500 mg/kg/day
LOAEL [5, 20]: > 1500 mg/kg/day
NEL [5, 20]: 250 mg/kg/day
NOAEL [5, 20]: ≥ 1500 mg/kg/day
LOAEL [5, 21]: > 1500 mg/kg/day
NEL [5, 21]: 500 mg/kg/day
NOAEL [5, 21]: ≥ 1500 mg/kg/day
LEL ([5]; group: parental, systemic / in life observation / body weight / body weight gain + systemic / pathology microscopic / stomach / hyperkeratosis): 1000 mg/kg/day
LOAEL ([6]; systemic / in life observation / body weight / body weight + systemic / in life observation / body weight / body weight gain): 1000 mg/kg/day
LEL [6, 22]: 250 mg/kg/day
NEL [6, 22]: < 250 mg/kg/day
NOAEL ([6]; systemic / organ weight / liver / absolute + systemic / in life observation / body weight / body weight + systemic / in life observation / …): 500 mg/kg/day

Compound: O=C(O)c1c(Cl)ccc2cc(Cl)cnc12 [Quinclorac]
LOAEL [7, 23]: 1000 mg/kg/day
NOAEL [7, 23]: < 1000 mg/kg/day
LEL [7, 24]: 1000 mg/kg/day
NEL [7, 24]: < 1000 mg/kg/day
LEL [8, 25]: 34.5 mg/kg/day
NEL [8, 25]: < 34.5 mg/kg/day
LOAEL [8, 26]: 469 mg/kg/day
NOAEL [8, 26]: 140 mg/kg/day
LEL [9, 27]: 600 mg/kg/day
LOAEL [9, 27]: 600 mg/kg/day
NEL [9, 27]: 200 mg/kg/day
NOAEL [9, 27]: 200 mg/kg/day
LEL [9, 28]: 200 mg/kg/day
LOAEL [9, 28]: 200 mg/kg/day
NEL [9, 29]: 70 mg/kg/day
NOAEL [9, 29]: 70 mg/kg/day
LOAEL ([10]; systemic / in life observation / body weight / body weight): 150 mg/kg/day
NEL [10, 30]: 37.5 mg/kg/day
NOAEL [10, 30]: 37.5 mg/kg/day
LEL ([10]; systemic / in life observation / body weight / body weight + systemic / organ weight / kidney / nos): 150 mg/kg/day

LEL [13, 31]: 100 mg/kg/day
NEL [13, 31]: < 100 mg/kg/day
LEL [13, 32]: 100 mg/kg/day
NEL [13, 32]: < 100 mg/kg/day
Compound: CC(=O)S[C@@H]1CC2=CC(=O)CC[C@]2(C)[C@H]2CC[C@@]3(C)[C@@H](CC[C@@]34CCC(=O)O4)[C@H]12 [Spironolactone]
LEL [11]: 100 mg/kg/day
LOAEL [11]: > 100 mg/kg/day
NEL [11]: < 100 mg/kg/day
NOAEL [11]: ≥ 100 mg/kg/day
LEL [12]: 100 mg/kg/day
LOAEL [12]: > 100 mg/kg/day
NEL [12]: < 100 mg/kg/day
NOAEL [12]: ≥ 100 mg/kg/day
LOAEL [13, 31]: > 100 mg/kg/day
NOAEL [13, 31]: ≥ 100 mg/kg/day
LOAEL [13, 32]: > 100 mg/kg/day
NOAEL [13, 32]: ≥ 100 mg/kg/day
